Entries after “also recorded” stand apart in the source; their conditions may differ.
Tested on: PCP-R choroid plexus cell line
Assay: Ussing chamber electrophysiology of TRPV4 agonist-stimulated transepithelial ion transport (short-circuit current and conductance)
Assay type: cell-based, porcine
From the text: In order to follow transepithelial ion movement, Ussing chamber electrophysiological techniques were used. The choroid plexus model is a high resistance, continuous cell line of porcine choroid plexus epithelial cells grown on permeable supports. […] The cells were mounted on electrophysiological apparatuses for analysis of transepithelial ion flux in response to inhibitory or stimulatory reagents. Filters were excised, mounted in a Ussing chamber, and connected to a DVC-1000 Voltage/Current Clamp with voltage and current electrodes on either side of the membrane. Each half of the chamber contained a tapered fluid compartment with fittings for voltage electrodes (close to the epithelial membrane) and current electrodes (at the opposite end of the chamber). The fluid chamber was water jacketed to maintain a constant temperature (37° C.). The cells were bathed in serum-free media. Media were circulated in the chambers and oxygenated by means of a 5% CO2/O2 gas lift. The spontaneous transepithelial potential difference was measured and clamped to zero, and the resultant short-circuit (SCC) was monitored continuously as a measurement of net transepithelial ion flux. As per convention, a negative deflection in the SCC was either cation secretion (from blood to CSF) or anion absorption (CSF to blood). Transepithelial resistance (TER) was recorded every 200 seconds throughout each experiment by applying a 2 mV pulse and using the resulting deflection in the SCC to calculate the TER by Ohm's law. Conductances were calculated from the change in current during the voltages pulses. Specifically conductance is the change in current divided by the magnitude of the imposed voltage. In all cases, the graphs shown in each panel represent a series of control and experimental cultures that were grown and analyzed in parallel.
After the basal current was stabilized, effectors were added to one or both sides of polarized monolayer as dictated by the physiological situation.
Further, conductance is a measurement of the permeability of the tissue to water and electrolytes. So, as the conductance goes up, one would expect greater ion and fluid permeability across the choroid plexus which is a barrier epithelium.
The same methods were used in this Example as in Example 1.

CC(C)C[C@H](NC(=O)c1cc2ccccc2s1)C(=O)N1CCN(C(=O)[C@H](CO)NS(=O)(=O)c2ccc(Cl)cc2Cl)CC1 [GSK1016790A]
change in conductance (agonist alone): large increase in the conductance
transepithelial ion transport response measured as short-circuit current (SCC) (agonist alone, added at time 0 minutes): consistent with cation secretion into the CSF

NCCC(Oc1ccc(C(F)(F)F)cc1)c1ccccc1 (stereo not shown) [norfluoxetine]
GSK1016790A-stimulated transepithelial potassium secretion in the direction of the CSF (short-circuit current, SCC) (cells pre-treated from time -10 to 0 minutes, GSK1016790A added at 0 minutes): effective at inhibiting the TRPV4-stimulated ion transport; also recorded: completely inhibited
TRPV4 agonist-induced increase in conductance (permeability) (pre-treatment before the TRPV4 agonist GSK1016790A): blocked this increased permeability

— patent publication US20200085767A1, “Methods for Treating Hydrocephalus” (Indian University Research and Technology Corporation, priority 2016, published 2020)
